pEC50: −log10 of the molar value.
Assays:
[1] = target: T1, human sphingosine-1-phosphate receptor 1 (S1P1) (Homo sapiens, UniProt P21453); assay: Inhibition of cAMP production (HTRF cAMP HiRange), S1P1 CHO-K1 cells; assay type: cell-based; settings: for EC50: read-out: hS1P1 CAMP pEC50 (converted)
Outline: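 Intracellular cAMP changes read by TR-FRET (HTRF HiRange, 1 h room temperature) after 30 min compound exposure at 37 °C. Cells: overnight-plated CHO-K1 stably expressing tagged human S1P1 with EA-β-arrestin2. Responses normalized to fingolimod.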
Target sequence in this assay (P21453 whole entry): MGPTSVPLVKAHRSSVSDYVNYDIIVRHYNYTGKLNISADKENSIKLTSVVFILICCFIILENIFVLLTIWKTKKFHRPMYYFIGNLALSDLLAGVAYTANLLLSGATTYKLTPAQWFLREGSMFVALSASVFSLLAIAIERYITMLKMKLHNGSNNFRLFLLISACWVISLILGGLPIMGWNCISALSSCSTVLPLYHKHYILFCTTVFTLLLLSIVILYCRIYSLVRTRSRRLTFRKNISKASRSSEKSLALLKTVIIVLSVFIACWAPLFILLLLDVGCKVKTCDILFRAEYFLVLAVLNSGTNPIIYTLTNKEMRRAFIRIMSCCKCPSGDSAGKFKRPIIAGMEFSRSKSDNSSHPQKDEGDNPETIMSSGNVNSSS

[2] = target: T1, human sphingosine-1-phosphate receptor 1 (S1P1); assay: β-Arrestin2 recruitment assay (PathHunter), S1P1 CHO-K1 cells; assay type: cell-based; settings: for EC50: β-arrestin2 recruitment, read-out: hS1P1 B-arrestin2 pEC50 (converted)
Outline: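 Agonist-driven β-arrestin2 recruitment measured by β-galactosidase complementation after 60 min compound exposure at 37 °C and 1 h detection at room temperature. Cells: stable CHO-K1 line expressing tagged human S1P1 with EA-β-arrestin2, plated the night before. Data expressed relative to fingolimod.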
Target sequence in this assay (P21453 whole entry): as above
Target sequence in this assay (P32121 whole entry partner): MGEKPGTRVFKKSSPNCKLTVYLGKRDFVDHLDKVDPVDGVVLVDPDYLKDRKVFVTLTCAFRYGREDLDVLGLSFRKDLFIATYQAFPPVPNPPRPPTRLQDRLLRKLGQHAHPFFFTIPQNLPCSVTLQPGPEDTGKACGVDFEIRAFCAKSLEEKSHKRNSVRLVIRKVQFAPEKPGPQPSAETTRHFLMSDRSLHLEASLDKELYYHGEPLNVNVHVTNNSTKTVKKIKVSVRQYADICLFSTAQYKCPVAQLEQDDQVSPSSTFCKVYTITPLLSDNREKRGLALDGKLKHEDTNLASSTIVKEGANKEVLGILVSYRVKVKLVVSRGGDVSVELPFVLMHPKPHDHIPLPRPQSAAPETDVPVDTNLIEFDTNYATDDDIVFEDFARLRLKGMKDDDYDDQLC

[3] = CHO-K1, efficacy normalized to maximum efficacy of fingolimod, read-out: hS1P1 CAMP SPAN
[4] = inhibition of cAMP production, S1P1
[5] = CHO-K1, efficacy normalized to maximum efficacy of fingolimod, read-out: hS1P1 B-arrestin2 SPAN
[6] = CHO-K1, inhibition of cAMP production, efficacy normalized to maximum efficacy of fingolimod, read-out: hS1P1 CAMP SPAN
[7] = inhibition of cAMP production, potency
[8] = CHO-K1, β-arrestin2 recruitment, efficacy normalized to maximum efficacy of fingolimod, read-out: hS1P1 B-arrestin2 SPAN

SMILES	Emax [1, 3]	EC50 [1, 4]	Emax [2, 5]	EC50 ([2]; S1P1)	other results
N#Cc1cc(-c2nnc(-c3ccc4[nH]c(=O)oc4c3)o2)ccc1NCC1CC1 [Compound 486, 2-[(cyclopropyl-methyl)amino]-5-[5-(2-oxo-2,3-dihydro-1,3-benzoxazol-6-yl)-1,3,4-oxadiazol-2-yl]benzonitrile]	< 75%	< 316 nM	> 75%	> 10000 nM	–
CC(C)Nc1ccc(-c2nnc(-c3ccc4c(c3)CCC(=O)N4)o2)cc1C#N [Compound 473, 5-[5-(2-oxo-1,2,3,4-tetrahydroquinolin-6-yl)-1,3,4-oxadiazol-2-yl]-2-[(propan-2-yl)amino]benzonitrile]	> 75%	< 316 nM	> 75%	< 10000 nM	–
CCC1(CC)CC(=O)c2cc(-c3nc(-c4ccc5c(c4)nnn5C(C)C)ns3)ccc2O1 [Compound 29, 2,2-diethyl-6-(3-(1-isopropyl-1H-benzo[d][1,2,3]triazol-5-yl)-1,2,4-thiadiazol-5-yl)chroman-4-one]	–	–	–	–	Emax [1, 6]: < 75%; EC50 [1, 7]: > 316 nM; Emax [2, 8]: < 75%; EC50 ([2]; potency): > 10000 nM
COc1ccccc1-c1nc(-c2ccc3c(c2)nnn3CC(C)(C)CO)no1 [Compound 525, 3-(5-(5-(2-methoxy-phenyl)-1,2,4-oxadiazol-3-yl)-1H-benzo[d][1,2,3]triazol-1-yl)-2,2-dimethyl-propan-1-ol]	> 75%	> 316 nM	> 75%	> 10000 nM	–
Cc1ccc2nc(-c3ccc4c(c3)nnn4CC(C)C)oc2c1 [Compound 448, 2-(1-isobutyl-1H-benzo[d][1,2,3]triazol-5-yl)-6-methyl-benzo[d]oxazole]	> 75%	> 316 nM	< 75%	> 10000 nM	–
Cn1cnc2ccc(-c3nnc(-c4ccc(NC(C)(C)CO)c(C#N)c4)o3)cc21 [Compound 634, 2-[(1-hydroxy-2-methylpropan-2-yl)amino]-5-[5-(1-methyl-1H-1,3-benzodiazol-6-yl)-1,3,4-oxadiazol-2-yl]benzonitrile]	< 75%	> 316 nM	< 75%	> 10000 nM	–
Cc1ccc(-c2noc(-c3ccc4c(c3)nnn4C3CCCC3)n2)s1 [Compound 192, 1-cyclopentyl-5-[3-(5-methylthiophen-2-yl)-1,2,4-oxadiazol-5-yl]-1H-1,2,3-benzotriazole]	–	–	–	–	Emax [1, 6]: < 75%; EC50 [1, 7]: > 316 nM; Emax [2, 8]: < 75%; EC50 ([2]; potency): > 10000 nM
COc1cc(NC(C)=O)ccc1-c1nc(-c2ccncc2)no1 [Compound 582, N-{3-methoxy-4-[3-(pyridin-4-yl)-1,2,4-oxadiazol-5-yl]phenyl}acetamide]	> 75%	> 316 nM	< 75%	> 10000 nM	–
CC(C)n1nnc2cc(-c3nc4cccc(Br)c4o3)ccc21 [Compound 429, 7-bromo-2-(1-isopropyl-1H-benzo[d][1,2,3]triazol-5-yl)benzo[d]oxazole]	> 75%	> 316 nM	> 75%	> 10000 nM	–
CC(C)(CO)n1nnc2cc(-c3noc(-c4ccncc4C(F)(F)F)n3)ccc21 [Compound 626, 2-methyl-2-(5-(5-(3-(trifluoro-methyl)pyridin-4-yl)-1,2,4-oxadiazol-3-yl)-1H-benzo[d] [1,2,3]triazol-1-yl)propan-1-ol]	< 75%	> 316 nM	< 75%	–	–
CCC1(CC)CC(=O)c2cc(-c3nc(-c4ccc(F)nc4)no3)ccc2O1 [Compound 546, 2,2-diethyl-6-(3-(6-fluoropyridin-3-yl)-1,2,4-oxadiazol-5-yl)chroman-4-one]	< 75%	> 316 nM	< 75%	> 10000 nM	–
COc1ccc(-c2nc(-c3ccc4c(c3)nnn4C(C)(C)CO)no2)c(C)c1 [Compound 610, 2-(5-(5-(4-methoxy-2-methylphenyl)-1,2,4-oxadiazol-3-yl)-1H-benzo[d] [1,2,3]triazol-1-yl)-2-methylpropan-1-ol]	< 75%	> 316 nM	> 75%	> 10000 nM	–
CC(C)Oc1ccc(-c2ncc(-c3ccc4c(c3)nnn4C(C)C)cn2)cc1C#N [Compound 595, 2-isopropoxy-5-(5-(1-isopropyl-1H-benzo[d][1,2,3]triazol-5-yl)pyrimidin-2-yl)benzonilrile]	> 75%	< 316 nM	> 75%	< 10000 nM	–
CCC1(CC)CC(=O)c2cc(-c3noc(-c4cccnc4)n3)ccc2O1 [Compound 559, 2,2-diethyl-6-(5-(pyridin-3-yl)-1,2,4-oxadiazol-3-yl)chroman-4-one]	> 75%	< 316 nM	> 75%	< 10000 nM	–
CC(C)n1ccc2cc(-c3noc(-c4ccccn4)n3)ccc21 [Compound 397, 3-(1-isopropyl-1H-indol-5-yl)-5-(pyridin-2-yl)-1,2,4-oxadiazole]	< 75%	> 316 nM	> 75%	> 10000 nM	–
Cc1nc2cc(-c3nc(-c4ccc5c(c4)nnn5C(C)C)no3)ccc2[nH]1 [Compound 571, 5-[5-(2-methyl-1H-1,3-benzodiazol-5-yl)-1,2,4-oxadiazol-3-yl]-1-(propan-2-yl)-1H-1,2,3-benzotriazole]	> 75%	< 316 nM	< 75%	< 10000 nM	–
CCC1(CC)CC(=O)c2cc(-c3nc(-c4cnccn4)no3)ccc2O1 [Compound 617, 2,2-diethyl-6-(3-(pyrazin-2-yl)-1,2,4-oxadiazol-5-yl)chroman-4-one]	< 75%	> 316 nM	> 75%	> 10000 nM	–
O=C1CNc2ccc(-c3nc(-c4cccnc4)no3)cc2N1 [Compound 629, 7-[3-(pyridin-3-yl)-1,2,4-oxadiazol-5-yl]-1,2,3,4-tetra-hydroquinoxalin-2-one]	> 75%	> 316 nM	< 75%	> 10000 nM	–
Cc1ccncc1-c1noc(-c2ccc3nnn(CC(C)C)c3c2)n1 [Compound 3, 1-(2-methylpropyl)-6-[3-(4-methylpyridin-3-yl)-1,2,4-oxadiazol-5-yl]-1H-1,2,3-benzotriazole]	–	–	–	–	Emax [1, 6]: > 75%; EC50 [1, 7]: < 316 nM; Emax [2, 8]: > 75%; EC50 ([2]; potency): < 10000 nM
CCC1CC(=O)c2ccc(-c3nc(-c4cccnc4)no3)cc2O1 (stereo not drawn) [Compound 588, 2-ethyl-7-[3-(pyridin-3-yl)-1,2,4-oxadiazol-5-yl]-3,4-dihydro-2H-1-benzopyran-4-one]	< 75%	> 316 nM	< 75%	> 10000 nM	–
Cc1ccc(-c2nc(-c3ccc4c(c3)nnn4C3CCCC3)no2)cc1 [Compound 235, 3-(1-cyclopentyl-1H-benzo[d][1,2,3]triazol-5-yl)-5-(p-tolyl)-1,2,4-oxadiazole]	–	–	–	–	Emax [1, 6]: < 75%; EC50 [1, 7]: > 316 nM; Emax [2, 8]: < 75%; EC50 ([2]; potency): > 10000 nM
CC(C)(CO)Cn1nnc2cc(-c3noc(-c4ccccc4Cl)n3)ccc21 [Compound 526, 3-(5-(5-(2-chloro-phenyl)-1,2,4-oxadiazol-3-yl)-1H-benzo[d][1,2,3]triazol-1-yl)-2,2-dimethylpropan-1-ol]	> 75%	> 316 nM	> 75%	> 10000 nM	–
CCOP(=O)(Cc1ccc(-c2noc(-c3ccc4c(c3)nnn4C(C)C)n2)cc1)OCC [Compound 583, diethyl[(4-{5-[1-(propan-2-yl)-1H-1,2,3-benzotriazol-5-yl]-1,2,4-oxadiazol-3-yl}phenyl)methyl]phosphonate]	–	–	–	–	pEC50 [1]: < 6.50; Emax ([1]; CHO-K1, read-out: hS1P1 CAMP SPAN): < 75%; pEC50 [2]: < 5.00; Emax ([2]; CHO-K1, read-out: hS1P1 B-arrestin2 SPAN): < 75%
COCC1(COC)CC(=O)c2cc(-c3nc(-c4ccncc4)no3)ccc2O1 [Compound 494, 2,2-bis(methoxy-methyl)-6-[3-(pyridin-4-yl)-1,2,4-oxadiazol-5-yl]-3,4-dihydro-2H-1-benzopyran-4-one]	< 75%	> 316 nM	< 75%	< 10000 nM	–
CCC1(CC)CC(=O)c2cc(-c3nc(-c4ccc(C)s4)no3)ccc2O1 [Compound 34, 2,2-diethyl-6-(3-(5-methylthiophen-2-yl)-1,2,4-oxadiazol-5-yl)chroman-4-one]	–	–	–	–	Emax [1, 6]: > 75%; EC50 [1, 7]: > 316 nM; Emax [2, 8]: < 75%; EC50 ([2]; potency): < 10000 nM
COc1ccccc1-c1csc(-c2cnc3c(ccn3C(C)C)c2)n1 [Compound 401, 2-(1-isopropyl-1H-pyrrolo[2,3-b]pyridin-5-yl)-4-(2-methoxy-phenyl)thiazole]	< 75%	> 316 nM	< 75%	> 10000 nM	–
CC(C)n1nnc2cc(-c3cc(-c4ccccc4)n(C)c3)ccc21 [Compound 544, 5-(1-methyl-5-phenyl-1H-pyrrol-3-yl)-1-(propan-2-yl)-1H-1,2,3-benzotriazole]	< 75%	> 316 nM	< 75%	< 10000 nM	–
CCC1(CC)CC(=O)c2cc(-c3nc(-c4cccnc4C(F)(F)F)no3)ccc2O1 [Compound 562, 2,2-diethyl-6-(3-(2-(trifluoromethyl)pyridin-3-yl)-1,2,4-oxadiazol-5-yl)chroman-4-one]	> 75%	< 316 nM	> 75%	< 10000 nM	–
